Laboratory results: ChEMBL document CHEMBL4007467, “Effects of 6-paradol, an unsaturated ketone from gingers, on cytochrome P450-mediated drug metabolism” (Bioorg Med Chem Lett, 2017)

What was measured:
Format in all cases: ADME
Parameters in all cases: scale not given: the % may be the effect or the level left
[1] = target: T1, CYP2C8 (Homo sapiens, UniProt P10632); test: Inhibition of CYP2C8 in human liver microsomes assessed as enzyme-mediated metabolite formation at 3 uM using paclitaxel as substrate incubated for 5 mins followed by NADPH addition measured after 30 mins by LC-MS/MS analysis relative to control; details: probe paclitaxel, read-out: Activity
T1 sequence (P10632 whole entry): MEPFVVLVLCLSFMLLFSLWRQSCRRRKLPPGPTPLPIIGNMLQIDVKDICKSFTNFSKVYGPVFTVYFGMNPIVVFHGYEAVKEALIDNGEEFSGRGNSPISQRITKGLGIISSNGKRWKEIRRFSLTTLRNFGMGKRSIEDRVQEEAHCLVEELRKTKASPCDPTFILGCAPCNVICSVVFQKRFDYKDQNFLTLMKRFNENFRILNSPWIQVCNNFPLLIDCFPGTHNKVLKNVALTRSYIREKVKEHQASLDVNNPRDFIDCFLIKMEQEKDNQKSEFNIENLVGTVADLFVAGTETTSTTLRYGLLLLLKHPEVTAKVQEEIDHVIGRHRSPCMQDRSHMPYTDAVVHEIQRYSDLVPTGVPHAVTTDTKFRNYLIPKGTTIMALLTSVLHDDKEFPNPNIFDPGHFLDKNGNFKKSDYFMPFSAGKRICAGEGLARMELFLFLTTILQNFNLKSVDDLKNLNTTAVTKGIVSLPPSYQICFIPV

[2] = target: T1, CYP2C8; test: Inhibition of CYP2C8 in human liver microsomes assessed as enzyme-mediated metabolite formation at 1 uM using paclitaxel as substrate preincubated for 20 mins followed by substrate addition measured after 30 mins in presence of NADPH by LC-MS/MS analysis relative to control; details: probe paclitaxel, read-out: Activity
[3] = target: T1, CYP2C8; test: Inhibition of CYP2C8 in human liver microsomes assessed as enzyme-mediated metabolite formation at 0.1 uM using paclitaxel as substrate incubated for 5 mins followed by NADPH addition measured after 30 mins by LC-MS/MS analysis relative to control; details: probe paclitaxel, read-out: Activity
[4] = target: T2, CYP2B6 (Homo sapiens, UniProt P20813); test: Inhibition of CYP2B6 in human liver microsomes assessed as enzyme-mediated metabolite formation at 1 uM using bupropion as substrate preincubated for 20 mins followed by substrate addition measured after 30 mins in presence of NADPH by LC-MS/MS analysis relative to control; details: probe bupropion, read-out: Activity
T2 sequence (P20813 whole entry): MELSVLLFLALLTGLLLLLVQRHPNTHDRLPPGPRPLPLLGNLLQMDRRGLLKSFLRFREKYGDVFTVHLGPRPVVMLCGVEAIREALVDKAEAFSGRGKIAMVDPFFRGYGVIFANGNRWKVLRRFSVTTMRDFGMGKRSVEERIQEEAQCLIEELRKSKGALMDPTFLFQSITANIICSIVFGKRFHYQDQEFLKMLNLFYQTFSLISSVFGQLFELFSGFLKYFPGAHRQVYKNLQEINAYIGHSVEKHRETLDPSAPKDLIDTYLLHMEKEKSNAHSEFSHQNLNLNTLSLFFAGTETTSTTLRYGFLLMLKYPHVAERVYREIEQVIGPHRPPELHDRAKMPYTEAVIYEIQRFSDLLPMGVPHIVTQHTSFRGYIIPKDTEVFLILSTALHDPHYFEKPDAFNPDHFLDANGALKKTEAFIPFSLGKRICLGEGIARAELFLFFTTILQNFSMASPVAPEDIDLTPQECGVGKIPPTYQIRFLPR

[5] = target: T3, CYP3A4 (Homo sapiens, UniProt P08684); test: Inhibition of CYP3A4 in human liver microsomes assessed as enzyme-mediated metabolite formation at 0.3 uM using testosterone as substrate incubated for 5 mins followed by NADPH addition measured after 30 mins by LC-MS/MS analysis relative to control; details: probe testosterone, read-out: Activity
T3 sequence (P08684 whole entry): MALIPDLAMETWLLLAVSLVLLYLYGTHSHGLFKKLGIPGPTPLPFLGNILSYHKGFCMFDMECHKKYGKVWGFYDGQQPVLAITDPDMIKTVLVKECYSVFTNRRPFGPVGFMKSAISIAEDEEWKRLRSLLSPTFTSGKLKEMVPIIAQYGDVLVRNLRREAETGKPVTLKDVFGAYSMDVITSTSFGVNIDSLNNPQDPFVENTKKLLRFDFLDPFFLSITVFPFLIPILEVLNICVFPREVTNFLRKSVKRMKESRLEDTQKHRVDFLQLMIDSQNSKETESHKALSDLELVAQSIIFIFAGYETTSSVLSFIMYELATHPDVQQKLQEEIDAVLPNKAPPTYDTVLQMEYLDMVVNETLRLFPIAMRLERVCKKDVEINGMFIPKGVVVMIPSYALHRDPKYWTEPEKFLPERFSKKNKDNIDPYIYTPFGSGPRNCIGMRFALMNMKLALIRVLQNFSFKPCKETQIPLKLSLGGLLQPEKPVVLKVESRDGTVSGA

[6] = target: T3, CYP3A4; test: Inhibition of CYP3A4 in human liver microsomes assessed as enzyme-mediated metabolite formation at 30 uM using midazolam as substrate preincubated for 20 mins followed by substrate addition measured after 30 mins in presence of NADPH by LC-MS/MS analysis relative to control; details: probe midazolam, read-out: Activity
[7] = target: T4, CYP2A6 (Homo sapiens, UniProt P11509); test: Inhibition of CYP2A6 in human liver microsomes assessed as enzyme-mediated metabolite formation at 1 uM using coumarin as substrate preincubated for 20 mins followed by substrate addition measured after 30 mins in presence of NADPH by LC-MS/MS analysis relative to control; details: probe coumarin, read-out: Activity
T4 sequence (P11509 whole entry): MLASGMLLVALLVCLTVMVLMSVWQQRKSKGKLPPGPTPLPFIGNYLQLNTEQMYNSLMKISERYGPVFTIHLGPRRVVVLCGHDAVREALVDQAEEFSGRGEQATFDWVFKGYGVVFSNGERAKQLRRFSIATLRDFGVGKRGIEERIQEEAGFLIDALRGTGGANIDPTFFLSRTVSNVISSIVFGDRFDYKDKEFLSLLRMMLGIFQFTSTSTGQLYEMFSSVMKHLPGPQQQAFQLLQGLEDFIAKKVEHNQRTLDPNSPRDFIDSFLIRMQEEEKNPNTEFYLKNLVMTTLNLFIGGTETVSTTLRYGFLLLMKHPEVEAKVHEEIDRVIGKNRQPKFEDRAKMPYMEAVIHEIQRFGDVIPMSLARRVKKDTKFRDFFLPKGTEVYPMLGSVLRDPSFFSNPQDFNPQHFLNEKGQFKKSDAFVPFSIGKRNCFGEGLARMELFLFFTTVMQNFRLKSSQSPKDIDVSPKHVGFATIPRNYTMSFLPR

[8] = target: T1, CYP2C8; test: Inhibition of CYP2C8 in human liver microsomes assessed as enzyme-mediated metabolite formation at 30 uM using paclitaxel as substrate preincubated for 20 mins followed by substrate addition measured after 30 mins in presence of NADPH by LC-MS/MS analysis relative to control; details: probe paclitaxel, read-out: Activity
[9] = target: CYP2D6 (Homo sapiens, UniProt P10635); test: Inhibition of CYP2D6 in human liver microsomes assessed as enzyme-mediated metabolite formation at 3 uM using dextromethorphan as substrate preincubated for 20 mins followed by substrate addition measured after 30 mins in presence of NADPH by LC-MS/MS analysis relative to control; details: probe dextromethorphan, read-out: Activity
Chain of CYP2D6 (P10635 whole entry): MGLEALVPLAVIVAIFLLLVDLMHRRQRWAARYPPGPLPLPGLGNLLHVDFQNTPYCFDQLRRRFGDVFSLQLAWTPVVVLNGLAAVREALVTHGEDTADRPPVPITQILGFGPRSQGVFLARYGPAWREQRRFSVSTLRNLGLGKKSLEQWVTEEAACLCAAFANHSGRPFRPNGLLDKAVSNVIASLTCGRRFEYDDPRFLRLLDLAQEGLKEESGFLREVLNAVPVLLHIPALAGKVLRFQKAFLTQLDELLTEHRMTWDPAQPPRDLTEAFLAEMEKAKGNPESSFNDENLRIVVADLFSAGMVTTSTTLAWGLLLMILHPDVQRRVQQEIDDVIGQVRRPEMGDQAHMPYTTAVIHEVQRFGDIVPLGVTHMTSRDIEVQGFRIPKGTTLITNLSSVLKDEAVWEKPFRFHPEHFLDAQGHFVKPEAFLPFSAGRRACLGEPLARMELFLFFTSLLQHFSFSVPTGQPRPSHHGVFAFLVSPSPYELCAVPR

Work on `CCCCCCCC(=O)CCc1ccc(O)c(OC)c1` yielded an activity at 0.5 h, 3 µM [1] of 58.7%, an activity at 0.5 h, 1 µM [2] of 61.5% and an activity at 0.5 h, 0.1 µM [3] of 88.7%. For the same molecule, the activity at 0.5 h, 1 µM [4] was 79%, the activity at 0.5 h, 0.3 µM [5] was 75.2% and the activity at 0.5 h, 30 µM [6] was 97.6%. It also gave an activity at 0.5 h, 1 µM [7] of 102%, an activity at 0.5 h, 30 µM [8] of 40.2% and an activity at 0.5 h, 3 µM [9] of 103%.
